Results taken from patent US20220257664A1, “METHOD FOR REGULATION OF SELECTIVE DIFFERENTIATION OF MUSCULOSKELETAL STEM CELLS” (CELLATOZ THERAPEUTICS, INC., priority 2019, published 2022).

B1: noggin: human noggin, ingredient 1) of the MSSC medium, 250 ng/mL (protein, UniProt Q13253 28-232, looked up)
Noggin: QHYLHIRPAPSDNLPLVDLIEHPDPIFDPKEKDLNETLLRSLLGGHYDPGFMATSPPEDRPGGGGGAAGGAEDLAELDQLLRQRPSGAMPSEIKGLEFSEGLAQGKKQRLSKKLRRKLQMWLWSQTFCPVLYAWNDLGSRFWPRYVKVGSCFSKRSCSVPEGMVCKPSKSVHLTVLRWRCQRRGGQRCGWIPIQYPIISECKCSC

Tests used:
[1] = system: hMSSCs; test: Induction of selective differentiation of hMSSCs transplanted into mouse; type: in vivo; conditions: mixed with heparin, transplanted into subcutaneous tissue of mouse; FIG. 8
Method: In order to measure the possibility of selective differentiation of hMSSCs, hMSSCs were transplanted into the kidney (kidney capsule) or subcutaneous tissue of Balb/c nude mouse by pretreating with various growth factors such as connective tissue growth factor, transforming growth factor, insulin, fibroblast growth factor, etc. and then preparing into a cell aggregate (4×10^5 cells) or mixing with a cell carrier. 3-6 weeks after the transplantation, tissue was analyzed after removing the transplanted cells.
For investigation of the selective differentiation capacity of the hMSSCs induced in the same manner as in Example 2 into muscle in vivo, hMSSCs were mixed with fibrin glue to which heparin was added and then transplanted into the subcutaneous tissue of an immunodeficient mouse. 7 weeks after the transplantation of hMSSCs, tissue was stained with H&E and the STEM101 antibody (Takara, Japan) binding to the human cell nucleus marker in order to identify whether the differentiated tissue was derived from the hMSSCs. In addition, the differentiated tissue was immunofluorescence staining with an antibody against the muscle marker MyoD (Thermo Fisher Scientific Inc., USA) in order to identify muscle cells. The cell nuclei were counterstained with DAPI. […]

[2] = system: hESCs; test: Differentiation tendency of MSSC medium vs. CM medium (number of differentiations out of 20 observations); type: cell-based, human; conditions: noggin contained, as compared to CM medium
Method: The differentiation capacity of a medium (hereinafter, referred to as “CM medium”) obtained by replacing human noggin (Life Technologies), which is the ingredient 1) of the seven ingredients of the MSSC medium of Example 2, with conditioned medium (culture supernatant obtained after culturing CF1 cells for 24 hours using complete medium wherein DMEM/F12 is replaced with knockout DMEM (knockout DMEM supplemented with 20% knockout serum replacement (Invitrogen, USA), 1 mM glutamine, 1% nonessential amino acids (Invitrogen, USA), 0.1 mM β-mercaptoethanol, 0.1% penicillin-streptomycin and 5 mg/mL bovine serum albumin) (the remaining ingredients 2)-7) are the same) was compared with that of the MSSC medium.
Noggin is generally used to maintain the characteristics of hESCs during culturing (Chaturvedi G, Simone P D, Ain R, Soares M J, Wolfe M W. Noggin maintains pluripotency of human embryonic stem cells grown on Matrigel. Cell Prolif. 2009 August; 42(4): 425-33).

Row | Molecule | selective differentiation of hMSSCs [1] | increase of tendency of osteogenic differentiation [2] [times]
1 | heparin | differentiated selectively into muscle only | 
2 | B1 |  | ≥ 10
